Experiments:
HOS cells = experiment: Attachment of HOS cells to plastic, glass or chromocobalt surfaces coated with OPN; assay type: cell-based, human; conditions: 1 hour
Procedure: 500 cells were plated on coated plastic, glass or chromocobalt surfaces and incubated at 37° C. in a humidified atmosphere (95% air 5% CO2). Surfaces were coated with either human recombinant phosphorylated OPN (rhOPN) or unphosphorylated OPN. Fibronectin coated surfaces were used as a control. After 1 hour, unattached cells were removed and the surfaces were washed with PBS. The total number of attached cells was determined for the total cpm released for the surfaces after the cells were lysed with 10% TCA and solubilized in 5 ml scintillation fluid. All measurements were done in triplicates.

canine model [1] = experiment: Osseointegration of coated TPS dental implants in canine model (bone to implant contact, bone density); assay type: in vivo, dog; conditions: coating 200 μg/ml
Source text: Canine models allow the use of implant designs and sizes commonly used in clinical applications.
Mandibular premolars and first molars were extracted bilaterally in a total of twelve dogs. After a healing period of three months, 6 implants TPS (ITI 4.1×8 mm) were placed in each mandibular quadrant. Test coatings of rOPN and mOC-1016 and non-coated TPS control wre used. A randomized distrubution of tests and controls were incorporated.
Large hounds were used in this Example. For all surgical procedures (extractions, implant placement, suture removal), after sedation with acepromazine (0.1 mg/kgS.C.), the animals were anesthetized using pentobarbitol (20 mg/kg I.V.). Antibiotics (bicillin 200,000 u I.M.) and ibuprofen for pain control (200 mg/dog/day P.O.) were given for extraction and implant placement surgeries. For sacrifice, an overdose of pentobarbitol (50 mg/kg I.V. after sedation with acepromazine 0.1 mg/kg S.C.) was administered.
The implant and it's surrounding tissue were dissected in block, fixed in 4% formaldehyde and imbedded in PMMA. The osseointegration of the implant was measured as percent of directly apposed bone versus total implant area by contour analysis using an image analysis system. The extent of new mineralized bone (in percent) in the area between the major and minor diameter of the implant was also determined.

[2] = test system: human osteoprogenitor cells; experiment: Peptide binding: attachment and spreading of human osteoprogenitor cells on coated plates; assay type: cell-based
Procedure: Example 11 analyzes the binding and cell spread activity of various peptides. The activities were measured in 24-well plates that were coated overnight at 4° C. with 10 μg/ml of the indicated ligand or peptide and then blocked for one hour at room temperature with 10 mg/ml BSA (Bovine Serum Albumin) in PBS (Phosphate Buffered Saline). To preserve the integrity of the adhesion receptors osteoprogenitor cells were harvested from sub-confluent cultures by non-enzymatic cell dissociation solution (Sigma, St. Louis, Mo.). Cells were washed twice with PBS and re-suspended at a concentration of 1×10^5 cells/ml of sterile Ca^2+- and Mg^2+-free PBS, supplemented with 0.1% BSA and 1 mM sodium pyruvate. 5×10^4 cells were incubated in each well and, after one hour at 37° C., the wells were washed three times with 0.5 ml PBS to remove non-adherent cells, fixed in 1% glutaraldehyde in 0.1 M cacodylate buffer (pH 7.4) at room temperature for one hour then stained with toluidine blue and hematoxylin. The total number of attached or spread cells in each well were counted microscopically using a Nikon Eclipse microscope equipped with a Sony digital camera. Total number of attached or spread cells were quantified using an Optima 5.2 image analysis system. Each experiment was done in triplicate and is reported as mean+/−standard error. To minimize variability inherent to cell attachment studies cells were scored as attached only when a defined nucleus observed accompanied by a transition from round to cuboidal cell morphology. Round cells that are loosely attached with no defined nucleus were scored as non-attached. These cells can be removed with repeated washes. The viability of the cells was measured before and after the termination of the experiments and only data from experiments with greater than 95% cell viability were used. […] Cell spreading was determined by membrane contour analysis and was scored according to increase in cell volume/surface area. Because of this change in cell volume/surface area, cell spreading is a measure of a change in cellular development. In some experiments, cell spreading was also assessed by the formation of stress fibers. The formation of stress fibers and/or changes in cell volume/surface area are each characteristics of cells undergoing differentiation. Each experiment was performed in quadruplicate wells and repeated three times.
5000 total human osteoprogenitor cells were plated on either uncoated plates or coated and incubated at 37° C. in a humidified atmosphere (95% air, 5% CO2). After 30 minutes, unattached cells were removed and the plates were washed with PBS. The total number of attached cells was determined as described in the materials and methods. In some experiments (labeled with an “#” in Table 8), antibodies ([…]) against various integrins were incubated with the cells for 15 minutes prior to plating.

αvβ3 integrin (human) = αvβ3 integrin (human) (UniProt P06756); experiment: cell-based or functional assay
αβ1 integrin (human) = αβ1 integrin (human) (UniProt P05556); experiment: cell-based or functional assay
CD44 (human) = CD44 (human) (UniProt P16070); experiment: cell-based or functional assay
canine model [3] = experiment: Safety assessment (serum chemistry, hematology, antibody) after coated implant treatment in dogs; assay type: in vivo, dog; conditions: dogs with coated implants; vs baseline
Source text: The issue of safety was also addressed by assessing the serum chemistry, hematology and antibody results following treatment. […] Therefore, rOPN and OC-1016 are safe based upon these evaluations.

[4] = cells pre-incubated with Anti-CD44
[5] = cells pre-incubated with Anti-αvβ3
[6] = cells pre-incubated with Anti-αβ1

Sequence of UniProt P06756 (P06756 31-1048, chain 1 of 2): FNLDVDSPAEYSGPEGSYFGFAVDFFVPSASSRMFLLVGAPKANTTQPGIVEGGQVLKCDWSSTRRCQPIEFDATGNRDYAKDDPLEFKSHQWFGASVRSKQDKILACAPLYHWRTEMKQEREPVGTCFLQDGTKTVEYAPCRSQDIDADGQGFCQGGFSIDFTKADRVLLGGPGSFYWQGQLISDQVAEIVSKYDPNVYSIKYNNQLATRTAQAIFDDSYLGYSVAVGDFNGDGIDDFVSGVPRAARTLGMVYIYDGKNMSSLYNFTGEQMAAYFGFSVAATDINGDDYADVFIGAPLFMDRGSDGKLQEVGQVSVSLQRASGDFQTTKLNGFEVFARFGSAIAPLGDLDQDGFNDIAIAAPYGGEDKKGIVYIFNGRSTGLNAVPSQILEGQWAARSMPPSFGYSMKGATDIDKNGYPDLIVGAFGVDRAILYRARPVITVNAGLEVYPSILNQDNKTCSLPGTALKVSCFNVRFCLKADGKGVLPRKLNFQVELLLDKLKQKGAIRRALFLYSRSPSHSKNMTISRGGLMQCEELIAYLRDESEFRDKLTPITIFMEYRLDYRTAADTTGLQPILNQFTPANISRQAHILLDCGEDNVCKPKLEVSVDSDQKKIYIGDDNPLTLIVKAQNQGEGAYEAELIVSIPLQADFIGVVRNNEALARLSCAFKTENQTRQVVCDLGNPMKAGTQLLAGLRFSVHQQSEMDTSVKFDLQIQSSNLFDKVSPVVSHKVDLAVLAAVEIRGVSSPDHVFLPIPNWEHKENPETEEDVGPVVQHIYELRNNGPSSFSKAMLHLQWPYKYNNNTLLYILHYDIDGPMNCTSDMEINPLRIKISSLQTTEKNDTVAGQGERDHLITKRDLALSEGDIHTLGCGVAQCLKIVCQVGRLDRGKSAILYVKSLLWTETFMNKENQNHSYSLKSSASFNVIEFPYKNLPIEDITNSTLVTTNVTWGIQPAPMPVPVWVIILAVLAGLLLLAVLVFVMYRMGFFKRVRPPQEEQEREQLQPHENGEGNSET
Sequence of UniProt P06756 (P05106 27-788, chain 2 of 2, further chain): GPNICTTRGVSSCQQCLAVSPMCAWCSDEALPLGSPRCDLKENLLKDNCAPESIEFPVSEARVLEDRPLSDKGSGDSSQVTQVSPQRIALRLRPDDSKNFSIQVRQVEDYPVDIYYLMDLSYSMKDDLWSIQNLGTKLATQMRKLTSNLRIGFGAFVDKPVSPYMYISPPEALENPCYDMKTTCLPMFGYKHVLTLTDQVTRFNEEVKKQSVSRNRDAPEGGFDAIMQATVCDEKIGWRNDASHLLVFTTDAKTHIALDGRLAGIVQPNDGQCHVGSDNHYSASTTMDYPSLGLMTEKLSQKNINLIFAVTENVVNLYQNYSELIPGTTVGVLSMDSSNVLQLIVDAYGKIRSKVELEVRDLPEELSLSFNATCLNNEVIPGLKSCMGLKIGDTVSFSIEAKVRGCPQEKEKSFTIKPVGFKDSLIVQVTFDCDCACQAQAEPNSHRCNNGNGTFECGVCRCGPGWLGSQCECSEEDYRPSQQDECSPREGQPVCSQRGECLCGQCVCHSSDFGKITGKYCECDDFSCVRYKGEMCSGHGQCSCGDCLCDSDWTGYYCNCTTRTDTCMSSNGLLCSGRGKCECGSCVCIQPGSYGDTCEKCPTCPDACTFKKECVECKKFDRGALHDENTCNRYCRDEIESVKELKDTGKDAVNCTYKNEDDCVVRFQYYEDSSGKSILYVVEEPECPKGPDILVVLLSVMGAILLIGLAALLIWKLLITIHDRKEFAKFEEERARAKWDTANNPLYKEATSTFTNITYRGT
Sequence of UniProt P05556 (P05556 21-798): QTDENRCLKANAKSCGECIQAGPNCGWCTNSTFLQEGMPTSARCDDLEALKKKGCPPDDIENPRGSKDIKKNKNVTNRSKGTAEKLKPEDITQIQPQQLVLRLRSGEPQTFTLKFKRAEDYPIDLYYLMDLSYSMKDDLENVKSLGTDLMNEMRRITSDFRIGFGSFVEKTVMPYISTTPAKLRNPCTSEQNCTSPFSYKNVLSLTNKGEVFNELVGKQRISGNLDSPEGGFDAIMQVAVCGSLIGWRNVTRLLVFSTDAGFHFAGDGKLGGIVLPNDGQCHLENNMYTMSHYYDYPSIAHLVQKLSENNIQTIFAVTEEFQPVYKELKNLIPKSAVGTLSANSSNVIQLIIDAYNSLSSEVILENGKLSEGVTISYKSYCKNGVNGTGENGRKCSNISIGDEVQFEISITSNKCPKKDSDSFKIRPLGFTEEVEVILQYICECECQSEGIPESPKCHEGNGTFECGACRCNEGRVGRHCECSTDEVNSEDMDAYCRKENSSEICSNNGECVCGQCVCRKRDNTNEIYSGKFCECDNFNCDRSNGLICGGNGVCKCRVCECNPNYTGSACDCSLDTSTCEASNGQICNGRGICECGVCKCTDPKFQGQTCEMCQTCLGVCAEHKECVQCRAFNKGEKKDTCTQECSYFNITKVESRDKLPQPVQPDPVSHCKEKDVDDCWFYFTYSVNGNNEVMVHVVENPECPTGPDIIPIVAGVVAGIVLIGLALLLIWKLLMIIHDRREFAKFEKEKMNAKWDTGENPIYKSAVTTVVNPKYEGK
Sequence of UniProt P16070 (P16070 21-742): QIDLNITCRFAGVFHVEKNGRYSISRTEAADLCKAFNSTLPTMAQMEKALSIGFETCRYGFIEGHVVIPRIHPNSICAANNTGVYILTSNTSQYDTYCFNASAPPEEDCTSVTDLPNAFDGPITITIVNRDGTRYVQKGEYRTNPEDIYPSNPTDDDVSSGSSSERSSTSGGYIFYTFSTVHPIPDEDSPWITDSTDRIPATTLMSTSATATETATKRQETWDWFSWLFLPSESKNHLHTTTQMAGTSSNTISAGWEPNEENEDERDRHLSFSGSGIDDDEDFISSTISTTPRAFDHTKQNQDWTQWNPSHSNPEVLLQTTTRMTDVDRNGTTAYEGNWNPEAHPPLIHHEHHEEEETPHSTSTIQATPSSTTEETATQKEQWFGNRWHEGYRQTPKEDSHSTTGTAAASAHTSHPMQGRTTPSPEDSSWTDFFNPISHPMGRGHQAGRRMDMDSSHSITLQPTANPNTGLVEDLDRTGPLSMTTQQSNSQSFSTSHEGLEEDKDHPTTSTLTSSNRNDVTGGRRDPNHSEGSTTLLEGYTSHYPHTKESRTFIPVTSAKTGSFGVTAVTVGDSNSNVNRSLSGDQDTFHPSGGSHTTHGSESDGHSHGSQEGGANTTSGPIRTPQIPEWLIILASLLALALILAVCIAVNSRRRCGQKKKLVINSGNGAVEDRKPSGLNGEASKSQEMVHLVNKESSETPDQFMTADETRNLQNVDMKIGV

## OPN: Table 2: unphosphorylated OPN used as surface coating
HOS cells; Plastic surface
  % total attached: 43.6%
HOS cells; chromocobalt (CrCo) surface
  % total attached: 4%
HOS cells; glass surface
  % total attached: 37.2%
Canine model [1]; 4 weeks
  Mean Percent Bone Density: 70.5%
  Mean Percent Bone to Implant Contact: 65.6%
Canine model [1]; 12 weeks
  Mean Percent Bone Density: 56.9%
  Mean Percent Bone to Implant Contact: 62.5%

## Osteopontin: osteopontin used to coat plates in Table 8; form not specified
[2]; [4]
  % Spread: 46.4%
  % total attached cells: 66%
[2]; [5]
  % Spread: 24.8%
  % total attached cells: 69.2%
[2]; [6]
  % Spread: 56.6%
  % total attached cells: 74.8%
[2]; no antibody, coated plates
  % Spread: 78.4%
  % total attached cells: 78.4%

## Osteopontin (from UniProt P10451 17-314) (ligand)
αvβ3 integrin (human)
  % Spread (# Anti-αvβ3): 24.8%
  % total attached cells (# Anti-αvβ3): 69.2%
αβ1 integrin (human)
  % Spread (# Anti-αβ1): 56.6%
  % total attached cells (# Anti-αβ1): 74.8%
CD44 (human)
  % Spread (# Anti-CD44): 46.4%
  % total attached cells (# Anti-CD44): 66%

## rOPN: Recombinant Osteopontin coated on TPS dental implants; printed as OPN in Tables 4-7
Canine model [3]
  serum chemistry, hematology and antibody results following treatment: no clinically significant differences from baseline
Canine model [1]; 4 weeks
  Mean Percent Bone Density: 70.9%
  Mean Percent Bone to Implant Contact: 65.6%
Canine model [1]; 12 weeks
  Mean Percent Bone to Implant Contact: 62.5%

## DTFTPIVPTVDVPNGRFDSLAYGLKSKSKKFQ [SEQ ID NO: 13]
[2]; no antibody, coated plates
  % Spread: 100.0%
  % total attached cells: 91.1%

## Fibronectin [reference compound]
HOS cells; Plastic surface
  % total attached: 91.6%
HOS cells; chromocobalt (CrCo) surface
  % total attached: 54.8%
HOS cells; glass surface
  % total attached: 89.6%

— patent US20060105013A1, “Osteopontin-coated surfaces and methods of use” (priority 2000, published 2006)
